The record followed here is paper PMC7594079, “Insights into the Function and Evolution of Taste 1 Receptor Gene Family in the Carnivore Fish Gilthead Seabream (Sparus aurata)” (International Journal of Molecular Sciences, 2020).

In the first series the target is T1, saT1R1/R3 (Sparus aurata, UniProt A0A671TNH8+A0A671VZB3).
T1 sequence (A0A671TNH8 23-847): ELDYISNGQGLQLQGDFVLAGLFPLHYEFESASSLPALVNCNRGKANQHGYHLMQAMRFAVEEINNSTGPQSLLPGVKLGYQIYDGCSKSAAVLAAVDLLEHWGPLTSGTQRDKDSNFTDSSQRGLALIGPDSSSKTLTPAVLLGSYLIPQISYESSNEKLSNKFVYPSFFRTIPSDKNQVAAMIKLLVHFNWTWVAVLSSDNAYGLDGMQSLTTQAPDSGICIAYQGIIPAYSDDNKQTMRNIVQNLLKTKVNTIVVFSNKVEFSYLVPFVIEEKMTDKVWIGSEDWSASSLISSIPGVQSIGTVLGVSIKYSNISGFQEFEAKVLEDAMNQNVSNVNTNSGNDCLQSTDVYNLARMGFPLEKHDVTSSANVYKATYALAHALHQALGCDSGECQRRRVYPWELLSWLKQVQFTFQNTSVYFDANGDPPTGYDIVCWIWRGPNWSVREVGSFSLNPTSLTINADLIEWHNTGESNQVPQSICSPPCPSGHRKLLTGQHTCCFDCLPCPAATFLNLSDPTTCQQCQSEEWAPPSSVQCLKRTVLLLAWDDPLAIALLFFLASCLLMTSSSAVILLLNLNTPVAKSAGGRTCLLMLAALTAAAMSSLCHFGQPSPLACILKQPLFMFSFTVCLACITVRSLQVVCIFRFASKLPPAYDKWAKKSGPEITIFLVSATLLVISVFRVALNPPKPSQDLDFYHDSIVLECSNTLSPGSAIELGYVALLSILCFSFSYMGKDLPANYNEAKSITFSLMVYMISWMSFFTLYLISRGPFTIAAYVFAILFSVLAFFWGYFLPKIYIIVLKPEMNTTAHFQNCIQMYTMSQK
T1 sequence (A0A671VZB3 24-860): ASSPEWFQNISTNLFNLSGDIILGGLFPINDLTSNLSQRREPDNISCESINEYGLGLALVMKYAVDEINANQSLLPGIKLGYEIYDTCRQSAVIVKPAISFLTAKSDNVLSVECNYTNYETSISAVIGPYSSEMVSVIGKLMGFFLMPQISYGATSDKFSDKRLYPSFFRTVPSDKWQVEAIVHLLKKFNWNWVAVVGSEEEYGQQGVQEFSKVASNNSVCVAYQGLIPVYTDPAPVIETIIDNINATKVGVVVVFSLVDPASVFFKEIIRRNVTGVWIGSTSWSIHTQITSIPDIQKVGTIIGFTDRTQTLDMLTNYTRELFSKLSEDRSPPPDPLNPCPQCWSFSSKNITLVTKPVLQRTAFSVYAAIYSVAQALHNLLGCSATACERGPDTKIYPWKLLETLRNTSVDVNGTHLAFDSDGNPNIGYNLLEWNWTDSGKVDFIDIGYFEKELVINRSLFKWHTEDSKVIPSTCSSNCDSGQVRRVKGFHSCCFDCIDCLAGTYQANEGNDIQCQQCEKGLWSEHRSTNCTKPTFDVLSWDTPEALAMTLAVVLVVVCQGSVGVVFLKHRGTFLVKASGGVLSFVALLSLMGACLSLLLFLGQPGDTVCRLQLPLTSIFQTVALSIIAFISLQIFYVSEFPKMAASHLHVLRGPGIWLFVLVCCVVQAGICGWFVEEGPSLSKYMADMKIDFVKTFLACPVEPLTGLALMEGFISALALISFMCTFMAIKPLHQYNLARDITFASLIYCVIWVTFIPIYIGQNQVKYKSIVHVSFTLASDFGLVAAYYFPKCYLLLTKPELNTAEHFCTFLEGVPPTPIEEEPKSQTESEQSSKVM
Nature of the series: saT1R1/R3 heterodimer transiently transfected in stable pGL3-NFAT-luc-HEK293 (Cl.3) cells, luciferase reporter. The format is cell-based. The following applies: as molarity; decimal comma. The text has this: Figure 6 Amino acid Log-dose response curves of activation in heterologous co-transfected (Cl.3) cells with saT1R1/3 (green dots), saT1R2a/3 (red squares) and saT1R2b/3 (black triangles) heterodimers. Evaluation of L-AA responses was based on the RLU mean ± SEM of four independent determinations normalized to the mean response of the same transfections stimulated with reduced assay medium (Basal Medium Eagle w/o L-glutamate (BME) + 1% FBS), and expressed as the percentage relative to basal levels (BL).
HEK293 cells were cultured in standard medium DMEM (Gibco, Thermo Fisher, Saint Louis, MO, USA) containing 10% FBS, penicillin (100 U/mL) and streptomycin ([…]) at 37 °C, with a humidified atmosphere at 5% CO2. pGL3-NFAT-luc-HEK293 stable clones were generated by co-transfections of pGL3-NFAT-luc and tgCMV/HyTK plasmids (50:1), the latter harboring the hygromycin phosphotransferase gene, using Lipofectamine LTX according to supplier’s protocols (Thermo Fisher, Saint Louis, MO, USA). Initially, HEK293 cells were selected using DMEM containing 400 μg/mL hygromycin B (Sigma, Darmstadt, Germany) in 24-well plates for two weeks; 24 colonies were further grown out in 96-well plates under reduced hygromycin selection (200 µg/mL) for three weeks. Potentially resistant NFAT-luc-HEK293 clones (n = 22) were validated after incubation in assay medium (DMEM + 1% FBS) containing PMA or Ionomycin (Sigma, Darmstadt, Germany) for 18 h (triplicates, 50,000 cells/well). Luciferase activity was quantified with ONE-Glo™ EX Reagent Kit (Promega, Madison, WI, USA) using a 96-microplate TECAN reader (Trading AG, Switzerland).
saT1Rs (saT1R1, saT1R2a, saT1R2b saT1R3) and saGαi1-2 genes were RT-PCR amplified using 5’ and 3’ flanking primers carrying HindIII and XhoI restriction sites, respectively. Gel-purified fragments were cloned into pGEM-T Easy vectors, re-sequenced, digested and subcloned into pcDNA™3 (Invitrogen, Carlsbad, CA, USA). Effective saT1R cloning into pcDNA™3 was further verified by HindIII/XhoI digestion. Transient co-transfections were done in 6-well plates (confluence ~70–80%) using 100 μL of reduced serum medium (Opti-MEM, Gibco, Thermo Fisher, Saint Louis, MO, USA) containing 150 ng of each selected pcDNA™3 construct, 1:10 charge ratio of Enhanced Green Fluorescent expressing construct (EGFP; positive control), and pBluescript II SK (+) vector DNA (Addgene, Watertown, MA, USA) up to 1 µg of totally transfected DNA. Following 24 h incubation, cells were washed with fresh standard medium and plated in polylysine treated plates for additional 24 h. Cells were then stimulated with L-AAs and sugar compounds for 18 h in a reduced assay medium (BME w/o L-glutamate; Gibco, Thermo Fisher, Saint Louis, MO, USA) + 1% FBS), to prevent unspecific Ca^2+/NFAT signaling activation and potential saT1R desensitization. All L-AAs and sugars used for in vitro experiments were obtained from Merck KGaA (Darmstadt, Germany).
On the technique in general: In a reporter assay the amount or activity of a reporter protein is the signal.
As for `NC(=O)CC[C@H](N)C(=O)O` [Gln, Glutamine], the “T1R1/R3 [MSD] maximum stimulation dose” value is listed as 1,00 × 10^-1 M.
On the same count and under the same terms, the result for `NCCCC[C@H](N)C(=O)O` [Lys, Lysine] reads 1,00 × 10^-3 M; that for `NC(=O)C[C@H](N)C(=O)O` [Asn, Asparagine], 1,00 × 10^-1 M.
On the same count and under the same terms, the result for `N[C@@H](Cc1c[nH]c2ccccc12)C(=O)O` [Trp, Tryptophan] reads 1,00 × 10^-3 M; that for `N[C@@H](Cc1c[nH]cn1)C(=O)O` [His, Histidine], 1,00 × 10^-5 M; that for `CC(C)C[C@H](N)C(=O)O` [Leu, Leucine], 1,00 × 10^-1 M.
The same measure, in the same setting: the result for `NCC(=O)O` [Gly, Glycine] reads 1,00 × 10^-1 M; that for `N[C@@H](CS)C(=O)O` [Cys, Cysteine], 1,00 × 10^-4 M.
With `N[C@@H](CC(=O)O)C(=O)O` [Asp, Aspartic acid], the “T1R1/R3 [MSD] maximum stimulation dose” value is reported as 1,00 × 10^-5 M.
On the same count and under the same terms, as for `N[C@@H](Cc1ccccc1)C(=O)O` [Phe, Phenylalanine], the figure is 1,00 × 10^-2 M; as for `CSCC[C@H](N)C(=O)O` [Met, Methionine], 1,00 × 10^-1 M.
The same measure, in the same setting: as for `CC(C)[C@H](N)C(=O)O` [Val, Valine], the figure is 1,00 × 10^-1 M; as for `O=C(O)[C@@H]1CCCN1` [Pro, Proline], 1,00 × 10^-1 M.
Take `N[C@@H](CCC(=O)O)C(=O)O` [Glu, Glutamic acid]: the “T1R1/R3 [MSD] maximum stimulation dose” value was 1,00 × 10^-2 M.
As for `C[C@@H](O)[C@H](N)C(=O)O` [Thr, Threonine], the “T1R1/R3 [MSD] maximum stimulation dose” value is given as 1,00 × 10^-1 M.
The same measure, in the same setting: as for `N=C(N)NCCC[C@H](N)C(=O)O` [Arg, Arginine], the figure is 1,00 × 10^-5 M.
As for `CC[C@H](C)[C@H](N)C(=O)O` [Ile, Isoleucine], the “T1R1/R3 [MSD] maximum stimulation dose” value is recorded as 1,00 × 10^-1 M.
As to `C[C@H](N)C(=O)O` [Ala, Alanine], the “T1R1/R3 [MSD] maximum stimulation dose” value is 1,00 × 10^-1 M.
The same measure, in the same setting: as for `N[C@@H](Cc1ccc(O)cc1)C(=O)O` [Tyr, Tyrosine], the figure is 1,00 × 10^-3 M; as for `N[C@@H](CO)C(=O)O` [Ser, Serine], 1,00 × 10^-1 M.

Another series deals with pGL3-NFAT-luc-HEK293 (Cl.3) cells.
Test: not given
The class given is cell-based.
Settings: not given
From the text:
BL (Basal Levels) = 100% RLU. Different lowercase letters (a,b,c) on top of bars indicate significant differences (p < 0.05) between concentrations, assessed by one-way ANOVA followed by Tukey’s Multiple Comparison Test (GraphPad Prism version 5.00).
As for `OC[C@H]1OC(O)[C@H](O)[C@@H](O)[C@@H]1O` (stereo partly drawn) [D-Glucose], the “doses toxic for the cells and/or inhibiting their stimulation” value was in the range of 300 to 500 mM.
